In US11739074B2, “Ras inhibitors” (Revolution Medicines, Inc., priority 2019, dated 2023):
Read-outs that look alike come from different tables or passages of the source.

Key:
AsPC-1 (K-Ras G12D) [1] = test: Potency assay: pERK in AsPC-1 cells; assay type: cell-based; conditions: Homo sapiens
AsPC-1 (K-Ras G12D) [2] = test: CellTiter-Glo cell viability assay, AsPC-1; assay type: cell-based; conditions: Homo sapiens, ASPC1, 120 h
Description: Determination of Cell Viability in RAS Mutant Cancer Cell Lines
Protocol: CellTiter-Glo® Cell Viability Assay
Note—The following protocol describes a procedure for monitoring cell viability of K-Ras mutant cancer cell lines in response to a compound of the invention. Other RAS isoforms may be employed, though the number of cells to be seeded will vary based on cell line used.
Test compounds (132.5 nL) were directly dispensed into the assay plates containing cells. […] On day 5, assay plates and their contents were equilibrated to room temperature for approximately 30 minutes. […] Luminescence was measured using the PerkinElmer Enspire. Data were normalized by the following: (Sample signal/Avg. DMSO)*100. The data were fit using a four-parameter logistic fit.

[3] = ASPC1, AsPC-1 cells, K-Ras G12D, read-out: pERK EC50 (AsPC-1 KRAS G12D)
[4] = AsPC-1, K-Ras G12D, 5-day treatment, read-out: AsPC-1 Cell Viability IC50
[5] = ASPC1, read-out: pERK EC50 (AsPC-1 KRAS G12D)
[6] = read-out: AsPC-1 Cell Viability IC50, AsPC-1, K-Ras G12D, 5-day treatment

Row | SMILES | EC50 (AsPC-1 (K-Ras G12D) [1]; [3]) [µM] | IC50 (AsPC-1 (K-Ras G12D) [2]; [4]) [µM] | EC50 (AsPC-1 (K-Ras G12D) [1]; [5]) [µM] | IC50 (AsPC-1 (K-Ras G12D) [2]; [6]) [µM]
1 | CCn1c(-c2cccnc2[C@H](C)OC)c2c3cc(ccc31)-c1cc(O)cc(c1)C[C@H](NC(=O)[C@H](C(C)C)N(C)C(=O)c1ccc(NC(=O)[C@H]3CN3)cn1)C(=O)N1CCC[C@H](N1)C(=O)OCC(C)(C)C2 [Compound 127] | < 5 | > 10 | – | –
2 | CCn1c(-c2cccnc2[C@H](C)OC)c2c3cc(ccc31)-c1cc(O)cc(c1)C[C@H](NC(=O)[C@H](C(C)C)N1CC[C@@H](NC(=O)[C@@H]3CN3)C1=O)C(=O)N1CCC[C@H](N1)C(=O)OCC(C)(C)C2 [Compound 129] | < 5 | 1 to 10 | – | –
3 | CCn1c(-c2cccnc2[C@H](C)OC)c2c3cc(ccc31)-c1cc(O)cc(c1)C[C@H](NC(=O)[C@H](C(C)C)N1CC[C@@]3(CCN(C[C@@H]4CN4)C3)C1=O)C(=O)N1CCC[C@H](N1)C(=O)OCC(C)(C)C2 [Compound 138] | < 5 | > 10 | – | –
4 | CCn1c(-c2cccnc2[C@H](C)OC)c2c3cc(ccc31)-c1cc(O)cc(c1)C[C@H](NC(=O)[C@H](C(C)C)N(C)C(=O)CNC(=O)[C@H]1CN1)C(=O)N1CCC[C@H](N1)C(=O)OCC(C)(C)C2 [Compound 140] | – | – | < 5 | 1 to 10
5 | CCn1c(-c2cccnc2[C@H](C)OC)c2c3cc(ccc31)-c1cc(O)cc(c1)C[C@H](NC(=O)[C@H](C(C)C)N(C)C(=O)CNC(=O)[C@@H]1CN1)C(=O)N1CCC[C@H](N1)C(=O)OCC(C)(C)C2 [Compound 147] | – | – | < 5 | 1 to 10
6 | CCn1c(-c2cccnc2[C@H](C)OC)c2c3cc(ccc31)-c1cc(O)cc(c1)C[C@H](NC(=O)[C@H](C(C)C)N1CC[C@@]3(CCN(C(=O)[C@H]4CN4)C3)C1=O)C(=O)N1CCC[C@H](N1)C(=O)OCC(C)(C)C2 [Compound 149] | < 5 | 1 to 10 | – | –
7 | CCn1c(-c2cccnc2[C@H](C)OC)c2c3cc(ccc31)-c1cc(O)cc(c1)C[C@H](NC(=O)[C@H](C(C)C)N(C)C(=O)[C@H]1CCCN1C(=O)[C@@H]1CN1)C(=O)N1CCC[C@H](N1)C(=O)OCC(C)(C)C2 [Compound 151] | – | – | < 5 | 1 to 10
8 | CCn1c(-c2cccnc2[C@H](C)OC)c2c3cc(ccc31)-c1cc(O)cc(c1)C[C@H](NC(=O)[C@H](C(C)C)N(C)C(=O)[C@H]1CCCN1C(=O)[C@H]1CN1)C(=O)N1CCC[C@H](N1)C(=O)OCC(C)(C)C2 [Compound 152] | – | – | < 5 | 1 to 10
9 | CCn1c(-c2cccnc2[C@H](C)OC)c2c3cc(ccc31)-c1cc(O)cc(c1)C[C@H](NC(=O)[C@H](C(C)C)N(C)C(=O)[C@H]1CC[C@@H](C)N1C(=O)[C@@H]1CN1)C(=O)N1CCC[C@H](N1)C(=O)OCC(C)(C)C2 [Compound 153] | – | – | < 5 | 1 to 10
10 | CCn1c(-c2cccnc2[C@H](C)OC)c2c3cc(ccc31)-c1cc(O)cc(c1)C[C@H](NC(=O)[C@H](C(C)C)N(C)C(=O)[C@H]1CC[C@@H](C)N1C(=O)[C@H]1CN1)C(=O)N1CCC[C@H](N1)C(=O)OCC(C)(C)C2 [Compound 154] | – | – | < 5 | 1 to 10
11 | CCn1c(-c2cccnc2[C@H](C)OC)c2c3cc(ccc31)-c1cc(O)cc(c1)C[C@H](NC(=O)[C@H](C(C)C)N(C)C(=O)[C@H]1CCN1C(=O)[C@@H]1CN1)C(=O)N1CCC[C@H](N1)C(=O)OCC(C)(C)C2 [Compound 157] | < 5 | 1 to 10 | – | –
12 | CCn1c(-c2cccnc2[C@H](C)OC)c2c3cc(ccc31)-c1cc(O)cc(c1)C[C@H](NC(=O)[C@H](C(C)C)N(C)C(=O)[C@H]1CCN1C(=O)[C@H]1CN1)C(=O)N1CCC[C@H](N1)C(=O)OCC(C)(C)C2 [Compound 158] | < 5 | 1 to 10 | – | –
13 | CCn1c(-c2cccnc2[C@H](C)OC)c2c3cc(ccc31)-c1cc(O)cc(c1)C[C@H](NC(=O)[C@H](C(C)C)N(C)C(=O)CN(C)C(=O)[C@H]1CN1CCO)C(=O)N1CCC[C@H](N1)C(=O)OCC(C)(C)C2 (some centres unmarked) [Compound 161] | – | – | < 5 | 1 to 10
14 | CCn1c(-c2cccnc2[C@H](C)OC)c2c3cc(ccc31)-c1cc(O)cc(c1)C[C@H](NC(=O)[C@H](C(C)C)N(C)C(=O)CN(C)C(=O)[C@@H]1CN1CCO)C(=O)N1CCC[C@H](N1)C(=O)OCC(C)(C)C2 (some centres unmarked) [Compound 162] | – | – | < 5 | 1 to 10
15 | CCn1c(-c2cccnc2[C@H](C)OC)c2c3cc(ccc31)-c1cc(O)cc(c1)C[C@H](NC(=O)[C@H](C(C)C)N(C)C(=O)C13CC(CN1C(=O)[C@@H]1CN1)C3)C(=O)N1CCC[C@H](N1)C(=O)OCC(C)(C)C2 [Compound 163] | < 5 | 1 to 10 | – | –
16 | CCn1c(-c2cccnc2[C@H](C)OC)c2c3cc(ccc31)-c1cc(O)cc(c1)C[C@H](NC(=O)[C@H](C(C)C)N(C)C(=O)C13CC(CN1C(=O)[C@H]1CN1)C3)C(=O)N1CCC[C@H](N1)C(=O)OCC(C)(C)C2 [Compound 164] | < 5 | 1 to 10 | – | –

Row | SMILES | EC50 (AsPC-1 (K-Ras G12D) [1]; [3]) [µM] | IC50 (AsPC-1 (K-Ras G12D) [2]; [4]) [µM] | EC50 (AsPC-1 (K-Ras G12D) [1]; [5]) [µM] | IC50 (AsPC-1 (K-Ras G12D) [2]; [6]) [µM]
17 | CCn1c(-c2cccnc2[C@H](C)OC)c2c3cc(ccc31)-c1cc(O)cc(c1)C[C@H](NC(=O)[C@H](C(C)C)N(C)C(=O)[C@]13C[C@H]1CCN3C(=O)[C@@H]1CN1)C(=O)N1CCC[C@H](N1)C(=O)OCC(C)(C)C2 [Compound 166] | < 5 | 1 to 10 | – | –
18 | CCn1c(-c2cccnc2[C@H](C)OC)c2c3cc(ccc31)-c1cc(O)cc(c1)C[C@H](NC(=O)[C@H](C(C)C)N(C)C(=O)[C@H]1C[C@H](NC(=O)[C@@H]3CN3)C1)C(=O)N1CCC[C@H](N1)C(=O)OCC(C)(C)C2 [Compound 167] | < 5 | 1 to 10 | – | –
19 | CCn1c(-c2cccnc2[C@H](C)OC)c2c3cc(ccc31)-c1cc(O)cc(c1)C[C@H](NC(=O)[C@H](C(C)C)N(C)C(=O)[C@@H]1CCN(C(=O)[C@@H]3CN3)C1)C(=O)N1CCC[C@H](N1)C(=O)OCC(C)(C)C2 [Compound 172] | < 5 | 1 to 10 | – | –
20 | CCn1c(-c2cccnc2[C@H](C)OC)c2c3cc(ccc31)-c1cc(O)cc(c1)C[C@H](NC(=O)[C@H](C(C)C)N(C)C(=O)N1CCCN(C(=O)[C@@H]3CN3)CC1)C(=O)N1CCC[C@H](N1)C(=O)OCC(C)(C)C2 [Compound 173] | < 5 | 1 to 10 | – | –
21 | CCn1c(-c2cccnc2[C@H](C)OC)c2c3cc(ccc31)-c1cc(O)cc(c1)C[C@H](NC(=O)[C@H](C(C)C)N(C)C(=O)CC1CN(C(=O)[C@@H]3CN3)C1)C(=O)N1CCC[C@H](N1)C(=O)OCC(C)(C)C2 [Compound 178] | < 5 | > 10 | – | –
22 | CCn1c(-c2cccnc2[C@H](C)OC)c2c3cc(ccc31)-c1cc(O)cc(c1)C[C@H](NC(=O)[C@H](C(C)C)N(C)C(=O)CC1CN(C(=O)[C@H]3CN3)C1)C(=O)N1CCC[C@H](N1)C(=O)OCC(C)(C)C2 [Compound 179] | < 5 | > 10 | – | –
23 | CCn1c(-c2cccnc2[C@H](C)OC)c2c3cc(ccc31)-c1cc(O)cc(c1)C[C@H](NC(=O)[C@H](C(C)C)N(C)C(=O)[C@H]1C[C@H](NC(=O)[C@H]3CN3)C1)C(=O)N1CCC[C@H](N1)C(=O)OCC(C)(C)C2 [Compound 182] | < 5 | > 10 | – | –
24 | CCn1c(-c2cccnc2[C@H](C)OC)c2c3cc(ccc31)-c1cc(O)cc(c1)C[C@H](NC(=O)[C@H](C(C)C)N(C)C(=O)N1CCN(C(=O)[C@H]3CN3)CC1=O)C(=O)N1CCC[C@H](N1)C(=O)OCC(C)(C)C2 [Compound 183] | < 5 | > 10 | – | –
25 | CCn1c(-c2cccnc2[C@H](C)OC)c2c3cc(ccc31)-c1cc(O)cc(c1)C[C@H](NC(=O)[C@H](C(C)C)N(C)C(=O)[C@]1(F)CCN(C(=O)[C@@H]3CN3)C1)C(=O)N1CCC[C@H](N1)C(=O)OCC(C)(C)C2 [Compound 184] | < 5 | 1 to 10 | – | –
26 | CCn1c(-c2cccnc2[C@H](C)OC)c2c3cc(ccc31)-c1cc(O)cc(c1)C[C@H](NC(=O)[C@H](C(C)C)N(C)C(=O)[C@@]1(F)CCN(C(=O)[C@@H]3CN3)C1)C(=O)N1CCC[C@H](N1)C(=O)OCC(C)(C)C2 [Compound 185] | < 5 | 1 to 10 | – | –
27 | CCn1c(-c2cccnc2[C@H](C)OC)c2c3cc(ccc31)-c1cc(O)cc(c1)C[C@H](NC(=O)[C@H](C(C)C)N(C)C(=O)c1ccc(NC(=O)[C@@H]3CN3)cn1)C(=O)N1CCC[C@H](N1)C(=O)OCC(C)(C)C2 [Compound 187] | < 5 | 1 to 10 | – | –
28 | CCn1c(-c2cccnc2[C@H](C)OC)c2c3cc(ccc31)-c1cc(O)cc(c1)C[C@H](NC(=O)[C@H](C(C)C)N(C)C(=O)N1CCCN(C(=O)[C@H]3CN3)CC1)C(=O)N1CCC[C@H](N1)C(=O)OCC(C)(C)C2 [Compound 190] | < 5 | 1 to 10 | – | –
29 | CCn1c(-c2cccnc2[C@H](C)OC)c2c3cc(ccc31)-c1cc(O)cc(c1)C[C@H](NC(=O)[C@H](C(C)C)N(C)C(=O)[C@H]1CCN(C(=O)[C@@H]3N[C@@H]3C3CC3)C1)C(=O)N1CCC[C@H](N1)C(=O)OCC(C)(C)C2 [Compound 198] | < 5 | 0.1 to 1 | – | –
30 | CCn1c(-c2cccnc2[C@H](C)OC)c2c3cc(ccc31)-c1cc(O)cc(c1)C[C@H](NC(=O)[C@H](C(C)C)N(C)C(=O)N(C)CCN(C)C(=O)[C@H]1CN1)C(=O)N1CCC[C@H](N1)C(=O)OCC(C)(C)C2 [Compound 204] | < 5 | 1 to 10 | – | –
31 | CCn1c(-c2cccnc2[C@H](C)OC)c2c3cc(ccc31)-c1cc(O)cc(c1)C[C@H](NC(=O)[C@H](C(C)C)N(C)C(=O)N1CCN(C(=O)[C@@H]3CN3)CC1=O)C(=O)N1CCC[C@H](N1)C(=O)OCC(C)(C)C2 [Compound 205] | < 5 | > 10 | – | –
